The term IC50 denotes the concentration at which inhibition is half-maximal.

One series concerns S1. Briefly: MIC determination (bacteria), strain S1. In kind it is cell-based, S. aureus. The following applies: 2-fold broth dilution. As for the experimental part:
(§1) MIC determination (bacteria); MICs were determined based on Clinical and Laboratory Standards Institute (CLSI) methodology (Methods for dilution antimicrobial susceptibility tests for bacteria that grow aerobically; Approved Standard—seventh edition. 2006, M7-A7, CLSI, Wayne Pa.) by a 2-fold broth dilution technique in Mueller Hinton (pH7.4 Biorad). For S. pneumoniae, the medium was supplemented with 2.5% laked horse blood. For H. influenzae, the medium was haemophilus test medium (H.T.M.). Overnight cultures were diluted to obtain the final inoculum of 10^5 cfu/well. Incubation was 37° C. overnight in ambient air. The MIC was defined as the lowest concentration which inhibited all visual growth and expressed in μg/ml. For each bacterial species, all of the molecules were tested in the same experiment in order to give a head-to-head comparison.

The next series relates to S26. In words: MIC determination (bacteria), strain S26. In kind it is cell-based, S. aureus. The following applies: 2-fold broth dilution. The method, then:
as §1

The next series deals with S4. In words: MIC determination (bacteria), strain S4. Format: cell-based, S. aureus. The note with it: 2-fold broth dilution. The method, then:
as §1
(Broth dilution looks for growth in wells or tubes with falling amounts of substance.)

The subject of series [1] is S2 (S. aureus 2, MRSA in vivo). In words: MIC determination (bacteria), strain S2. The note with it: 2-fold broth dilution. In kind it is cell-based. As for the experimental part: as §1
For the next series, the system named is E1. In words: MIC determination (bacteria), strain E1. Format: cell-based, enterococcus. The following applies: 2-fold broth dilution. The method, then: as §1
The test system of the next series is E2. Briefly: MIC determination (bacteria), strain E2. In kind it is cell-based, enterococcus. The following applies: 2-fold broth dilution. As for the experimental part: as §1
A further series deals with P1. Briefly: MIC determination (bacteria), strain P1. In kind it is cell-based, S. pneumoniae. The note with it: 2-fold broth dilution. The method, then:
as §1

Another series deals with P9. In words: MIC determination (bacteria), strain P9. In kind it is cell-based, S. pneumoniae. The note with it: 2-fold broth dilution. As for the experimental part:
as §1

Another series deals with P9B. In words: MIC determination (bacteria), strain P9B. In kind it is cell-based, S. pneumoniae. The following applies: 2-fold broth dilution. The method, then: as §1
Another series concerns H3. Briefly: MIC determination (bacteria), strain H3. In kind it is cell-based, H. influenzae. The following applies: haemophilus test medium. As for the experimental part: as §1
The test system of a further series is H4. In words: MIC determination (bacteria), strain H4. Format: cell-based, H. influenzae. The note with it: haemophilus test medium. The method, then: as §1
Another series has as its target E. Coli RNAP (Escherichia coli, UniProt P0A8T7+P0A8V2). In words: In vitro activity against E. Coli RNAP. In kind it is biochemical. The source says:
(§2) These properties can be determined according to techniques that are well known in the art.

The next series has as its system S. aureus membrane. In words: In vitro activity in depolarization of S. aureus membrane. In kind it is cell-based. The following applies: read-out: DEP (IC50).
Description: as §2

The test system of series [2] is mammalian_red blood cell membrane. Briefly: In vitro mammalian red blood cell membrane lysis activity. In kind it is cell-based. The note with it: Active or inactive at 100 μM.
Description: as §2

Series [3] deals with human embryonic kidney 293 cells. In words: in vitro toxicities against human embryonic kidney 293 cells. Format: cell-based. The note with it: human embryonic kidney 293 cells.
Description: as §2

Series [4] has as its system human peripheral blood cells. Briefly: in vitro toxicities human peripheral blood cells. Format: cell-based. The note with it: human peripheral blood cells.
Description: as §2

Series [5] is described as follows: aqueous solubility at pH 7.4. In kind it is physicochemical. The note with it: aqueous solubility at pH 7.4 (water with 2% DMSO).
Description: as §2

Molecules are shown by their SMILES. ≈ marks a conversion by molar mass, not a printed value. Bounds are passed on as bounds.

E. Coli RNAP, sequence (P0A8V2 whole entry): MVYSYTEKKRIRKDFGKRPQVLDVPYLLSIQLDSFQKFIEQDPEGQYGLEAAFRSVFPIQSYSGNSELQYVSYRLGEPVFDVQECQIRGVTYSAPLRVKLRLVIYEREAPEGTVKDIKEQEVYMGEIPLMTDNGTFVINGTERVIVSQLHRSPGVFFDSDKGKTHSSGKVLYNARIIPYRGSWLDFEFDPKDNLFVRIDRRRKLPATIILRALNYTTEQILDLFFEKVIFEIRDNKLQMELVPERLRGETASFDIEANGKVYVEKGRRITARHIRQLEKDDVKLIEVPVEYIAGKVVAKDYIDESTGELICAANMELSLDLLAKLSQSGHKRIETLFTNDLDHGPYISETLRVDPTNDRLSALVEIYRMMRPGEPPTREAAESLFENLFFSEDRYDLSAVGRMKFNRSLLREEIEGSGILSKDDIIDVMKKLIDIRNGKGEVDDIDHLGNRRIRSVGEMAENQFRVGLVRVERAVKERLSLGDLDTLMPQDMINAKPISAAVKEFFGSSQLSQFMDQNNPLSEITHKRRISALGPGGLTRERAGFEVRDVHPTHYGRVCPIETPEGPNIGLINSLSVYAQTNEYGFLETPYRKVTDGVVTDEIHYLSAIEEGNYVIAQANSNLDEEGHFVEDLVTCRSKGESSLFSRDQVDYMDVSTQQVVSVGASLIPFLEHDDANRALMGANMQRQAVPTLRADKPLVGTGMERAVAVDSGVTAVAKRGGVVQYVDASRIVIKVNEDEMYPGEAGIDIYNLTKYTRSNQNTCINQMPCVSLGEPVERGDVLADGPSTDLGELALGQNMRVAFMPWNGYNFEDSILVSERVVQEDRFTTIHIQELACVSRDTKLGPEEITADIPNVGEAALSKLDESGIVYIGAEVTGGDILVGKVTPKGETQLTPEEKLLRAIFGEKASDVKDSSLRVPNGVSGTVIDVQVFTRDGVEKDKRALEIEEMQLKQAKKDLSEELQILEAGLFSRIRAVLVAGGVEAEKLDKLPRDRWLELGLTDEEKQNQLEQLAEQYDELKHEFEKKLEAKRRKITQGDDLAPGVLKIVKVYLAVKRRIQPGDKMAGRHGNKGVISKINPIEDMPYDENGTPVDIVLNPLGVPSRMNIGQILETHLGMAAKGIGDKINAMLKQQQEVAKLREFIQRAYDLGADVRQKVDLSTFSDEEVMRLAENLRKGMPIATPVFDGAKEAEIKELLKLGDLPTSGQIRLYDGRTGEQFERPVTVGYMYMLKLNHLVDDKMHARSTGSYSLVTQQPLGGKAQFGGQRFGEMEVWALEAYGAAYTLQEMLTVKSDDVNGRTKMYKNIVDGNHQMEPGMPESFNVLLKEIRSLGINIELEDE
E. Coli RNAP, sequence (P0A8T7 whole entry): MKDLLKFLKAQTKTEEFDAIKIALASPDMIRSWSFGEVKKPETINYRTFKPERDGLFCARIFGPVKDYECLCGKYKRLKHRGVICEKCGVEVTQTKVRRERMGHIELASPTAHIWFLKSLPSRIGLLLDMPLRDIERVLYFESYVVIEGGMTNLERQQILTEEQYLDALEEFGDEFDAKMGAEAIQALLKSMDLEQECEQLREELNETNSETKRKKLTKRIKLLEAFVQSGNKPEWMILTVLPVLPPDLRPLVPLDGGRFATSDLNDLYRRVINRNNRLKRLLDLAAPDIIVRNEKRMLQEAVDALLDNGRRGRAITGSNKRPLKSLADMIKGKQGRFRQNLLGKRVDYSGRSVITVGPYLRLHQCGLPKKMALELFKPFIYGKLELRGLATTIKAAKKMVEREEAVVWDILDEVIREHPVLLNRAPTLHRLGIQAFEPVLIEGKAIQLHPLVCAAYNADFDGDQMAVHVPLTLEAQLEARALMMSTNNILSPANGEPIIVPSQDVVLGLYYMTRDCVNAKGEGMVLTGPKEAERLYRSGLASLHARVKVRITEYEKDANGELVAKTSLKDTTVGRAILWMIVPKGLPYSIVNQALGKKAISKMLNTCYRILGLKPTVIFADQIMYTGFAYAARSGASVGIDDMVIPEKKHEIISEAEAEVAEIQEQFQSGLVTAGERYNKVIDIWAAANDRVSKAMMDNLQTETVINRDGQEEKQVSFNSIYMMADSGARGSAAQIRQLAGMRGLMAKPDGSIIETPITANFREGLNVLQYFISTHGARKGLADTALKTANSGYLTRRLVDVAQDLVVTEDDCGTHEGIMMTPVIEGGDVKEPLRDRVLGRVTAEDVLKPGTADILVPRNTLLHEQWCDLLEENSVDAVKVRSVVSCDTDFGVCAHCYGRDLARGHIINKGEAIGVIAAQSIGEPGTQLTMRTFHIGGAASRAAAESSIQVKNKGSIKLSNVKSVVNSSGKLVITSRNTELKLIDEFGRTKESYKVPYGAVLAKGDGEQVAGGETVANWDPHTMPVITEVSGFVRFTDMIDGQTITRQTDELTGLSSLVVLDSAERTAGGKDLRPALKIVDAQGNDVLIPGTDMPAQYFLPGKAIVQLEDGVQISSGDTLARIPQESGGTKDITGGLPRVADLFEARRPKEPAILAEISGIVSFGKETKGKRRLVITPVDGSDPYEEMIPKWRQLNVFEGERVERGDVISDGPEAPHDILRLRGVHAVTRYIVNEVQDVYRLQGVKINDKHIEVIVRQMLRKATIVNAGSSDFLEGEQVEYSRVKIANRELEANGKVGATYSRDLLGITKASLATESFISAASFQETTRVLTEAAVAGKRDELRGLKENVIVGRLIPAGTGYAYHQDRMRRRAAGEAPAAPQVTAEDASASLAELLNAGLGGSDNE
E. Coli RNAP, sequence (P0A7Z4 whole entry partner): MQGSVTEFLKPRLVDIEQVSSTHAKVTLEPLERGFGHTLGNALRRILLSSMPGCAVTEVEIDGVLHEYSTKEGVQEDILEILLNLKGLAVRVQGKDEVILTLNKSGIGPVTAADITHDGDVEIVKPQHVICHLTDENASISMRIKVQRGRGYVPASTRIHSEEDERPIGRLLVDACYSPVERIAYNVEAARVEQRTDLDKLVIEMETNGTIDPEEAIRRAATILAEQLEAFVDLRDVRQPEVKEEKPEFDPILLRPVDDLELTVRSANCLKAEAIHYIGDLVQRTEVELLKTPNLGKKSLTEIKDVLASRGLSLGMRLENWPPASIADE
E. Coli RNAP, sequence (P0A800 whole entry partner): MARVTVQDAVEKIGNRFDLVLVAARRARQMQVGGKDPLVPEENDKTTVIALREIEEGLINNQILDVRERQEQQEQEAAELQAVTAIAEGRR

With `CCCCCCCC(O)=C1C(=O)C(CCSC)N(C(=O)CC(C)CC(C)(C)C)C1=O` (centres unmarked) [24j], the “MIC S1” value in the series on S1 (Table 1) stood at 0.5 µg/mL (≈ 1.14 µM). Besides, in the series with S26 (Table 1), the “MIC S26” value amounted to 1 µg/mL (≈ 2.27 µM). Besides, the “MIC S4” value with S4 (Table 1) worked out at 0.5 µg/mL (≈ 1.14 µM). For the same molecule, in series [1] (Table 1), the “MIC S2” value is 0.5 µg/mL (≈ 1.14 µM). Also, the “MIC E1” value with E1 (Table 1) is 0.25 µg/mL (≈ 0.569 µM). Moreover, the “MIC E2” value against E2 (Table 1) turned out to be 0.25 µg/mL (≈ 0.569 µM). For the same molecule, the “MIC P1” value in the series on P1 (Table 1) stood at 0.12 µg/mL (≈ 0.273 µM). Also, in the series with P9 (Table 1), the “MIC P9” value was found to be 0.12 µg/mL (≈ 0.273 µM). For the same molecule, the “MIC P9B” value against P9B (Table 1) was 4 µg/mL (≈ 9.1 µM). Moreover, the “MIC H3” value with H3 (Table 1) was >64 µg/mL. For the same molecule, in the series with H4 (Table 1), the “MIC H4” value stood at 2 µg/mL (≈ 4.55 µM). In addition, the IC50 against E. Coli RNAP was 19 µM; in the series with S. aureus membrane, > 100 µM. The “RBC membrane lysis activity (active/inactive)” value in series [2] is listed as “Active”. Moreover, in series [3], the “Hek293 (LD50, μM)” value amounted to 10.1 µM. The “PMBC (LD50, μM)” value in series [4] was 30.3 µM. Further, the “SOL” value in series [5] is >300 µM.
Take `CCCCCCC(=O)N1CC(=O)C(=C(O)CCCOc2ccc(Cl)cc2C)C1=O` [28h]: the “MIC S1” value with S1 (Table 2) stood at 1 µg/mL (≈ 2.37 µM). In the series on S26 (Table 2), the “MIC S26” value is 4 µg/mL (≈ 9.48 µM). In addition, the “MIC S4” value in the series with S4 (Table 2) is 4 µg/mL (≈ 9.48 µM). For the same molecule, the “MIC S2” value in series [1] (Table 2) turned out to be 2 µg/mL (≈ 4.74 µM). The “MIC E1” value with E1 (Table 2) is 0.5 µg/mL (≈ 1.19 µM). In the series on E2 (Table 2), the “MIC E2” value was 0.5 µg/mL (≈ 1.19 µM). The “MIC P1” value in the series with P1 (Table 2) came out at 0.5 µg/mL (≈ 1.19 µM). For the same molecule, the “MIC P9” value with P9 (Table 2) was determined as 0.5 µg/mL (≈ 1.19 µM). The “MIC P9B” value in the series on P9B (Table 2) came out at 4 µg/mL (≈ 9.48 µM). The “MIC H3” value in the series with H3 (Table 2) was 8 µg/mL (≈ 19 µM). Besides, in the series with H4 (Table 2 and its footnote f), the “MIC H4” value amounted to 4 µg/mL (≈ 9.48 µM). At E. Coli RNAP, this molecule displayed a half-maximal inhibitory concentration (IC50) of 33 µM. For the same molecule, the “Hek293 (LD50, μM)” value in series [3] came out at 30.3 µM. In addition, in series [4], the “PMBC (LD50, μM)” value came out at 90.9 µM. Further, in [5], the “SOL” value was >300 µM.
On to `CCCC(=O)N1CC(=O)C(=C(O)CC23CC4CC(C)(CC(C)(C4)C2)C3)C1=O` [27k], for which, in the series with S1 (Table 2), the “MIC S1” value was 2 µg/mL (≈ 5.35 µM). Besides, the “MIC S26” value against S26 (Table 2) was 2 µg/mL (≈ 5.35 µM). Further, in the series on S4 (Table 2), the “MIC S4” value turned out to be 2 µg/mL (≈ 5.35 µM). For the same molecule, in [1] (Table 2), the “MIC S2” value is 2 µg/mL (≈ 5.35 µM). The “MIC E1” value against E1 (Table 2) turned out to be 0.5 µg/mL (≈ 1.34 µM). Besides, in the series with E2 (Table 2), the “MIC E2” value amounted to 1 µg/mL (≈ 2.68 µM). For the same molecule, the “MIC P1” value in the series on P1 (Table 2) was 1 µg/mL (≈ 2.68 µM). In addition, the “MIC P9” value in the series on P9 (Table 2) was 0.5 µg/mL (≈ 1.34 µM). The “MIC P9B” value in the series on P9B (Table 2) amounted to 1 µg/mL (≈ 2.68 µM). Further, in the series with H3 (Table 2), the “MIC H3” value is 8 µg/mL (≈ 21.4 µM). The “MIC H4” value in the series with H4 (Table 2 and its footnote f) amounted to 4 µg/mL (≈ 10.7 µM). For the same molecule, the 50% inhibitory concentration (IC50) is 6.7 µM against E. Coli RNAP and > 100 µM with S. aureus membrane. Also, the “RBC membrane lysis activity (active/inactive)” value in series [2] is given as “Active”. For the same molecule, the “Hek293 (LD50, μM)” value in series [3] came to 30.3 µM. For the same molecule, the “PMBC (LD50, μM)” value in series [4] is 90.9 µM. Besides, the “SOL” value in series [5] is >300 µM.
Take `CSCCC1C(=O)C(=C(O)CC23CC4CC(CC(C4)C2)C3)C(=O)N1C(=O)C1CCCCC1` (centres unmarked) [31f]: the “MIC S1” value with S1 (Table 2) was found to be 0.5 µg/mL (≈ 1.09 µM). Besides, in the series with S26 (Table 2), the “MIC S26” value is 1 µg/mL (≈ 2.18 µM). Further, the “MIC S4” value in the series on S4 (Table 2) amounted to 0.5 µg/mL (≈ 1.09 µM). Further, the “MIC S2” value in series [1] (Table 2) came out at 2 µg/mL (≈ 4.35 µM). In addition, the “MIC E1” value against E1 (Table 2) is 0.5 µg/mL (≈ 1.09 µM). Further, the “MIC E2” value against E2 (Table 2) amounted to 1 µg/mL (≈ 2.18 µM). Also, in the series with P1 (Table 2), the “MIC P1” value was determined as 1 µg/mL (≈ 2.18 µM). Moreover, the “MIC P9” value in the series with P9 (Table 2) is 0.5 µg/mL (≈ 1.09 µM). Further, in the series with P9B (Table 2), the “MIC P9B” value turned out to be 2 µg/mL (≈ 4.35 µM). Further, the “MIC H3” value in the series on H3 (Table 2) worked out at 32 µg/mL (≈ 69.6 µM). Besides, the “MIC H4” value with H4 (Table 2 and its footnote f) came to 2 µg/mL (≈ 4.35 µM). For the same molecule, the IC50 against E. Coli RNAP is 40 µM; with S. aureus membrane, > 100 µM. In series [2], the “RBC membrane lysis activity (active/inactive)” value was “Inactive^d”. In [3], the “Hek293 (LD50, μM)” value was found to be 90.9 µM. Moreover, the “PMBC (LD50, μM)” value in series [4] was >90.9 µM. The “SOL” value in [5] is >300 µM.
For `CCCCCCCCCC(O)=C1C(=O)CCN(C(=O)c2ccccc2)C1=O` [25a], the “MIC S1” value against S1 (Table 1) was determined as 2 µg/mL (≈ 5.38 µM). In the series with S26 (Table 1), the “MIC S26” value turned out to be 4 µg/mL (≈ 10.8 µM). Besides, the “MIC S4” value against S4 (Table 1) was 2 µg/mL (≈ 5.38 µM). The “MIC S2” value in series [1] (Table 1) worked out at 4 µg/mL (≈ 10.8 µM). In the series with E1 (Table 1), the “MIC E1” value worked out at 2 µg/mL (≈ 5.38 µM). In the series on E2 (Table 1), the “MIC E2” value is 4 µg/mL (≈ 10.8 µM). In the series on P1 (Table 1), the “MIC P1” value is 0.5 µg/mL (≈ 1.35 µM). Also, the “MIC P9” value against P9 (Table 1) worked out at 0.5 µg/mL (≈ 1.35 µM). In the series on P9B (Table 1), the “MIC P9B” value worked out at 4 µg/mL (≈ 10.8 µM). Further, in the series on H3 (Table 1), the “MIC H3” value was found to be 16 µg/mL (≈ 43.1 µM). Besides, the “MIC H4” value against H4 (Table 1) was found to be 8 µg/mL (≈ 21.5 µM). Moreover, the IC50 was > 100 µM against E. Coli RNAP and 83.6 µM with S. aureus membrane. Moreover, in series [2], the “RBC membrane lysis activity (active/inactive)” value is given as “Inactive^d”. Moreover, the “Hek293 (LD50, μM)” value in series [3] was >90.9 µM. Besides, the “PMBC (LD50, μM)” value in series [4] was >90.9 µM. The “SOL” value in [5] is >300 µM.
